The structures appear in SMILES notation.

Usually melting point stands for the temperature, or range, at which the solid turns liquid.

For the compound `O=C1CC(c2cccc(-c3cnccn3)c2)=Nc2cc(OCC(F)(F)F)c(C(F)(F)F)cc2N1` [Example 112, 4-(3-Pyrazin-2-yl-phenyl)-7-(2,2,2-trifluoro-ethoxy)-8-trifluoromethyl-1,3-dihydro-benzo[b][1,4]diazepin-2-one], the melting point came to 242 °C.

With `O=C1CC(c2cccc(-c3cccnc3)c2)=Nc2cc(C(F)(F)F)c(Cl)cc2N1` [Example 113, 8-Chloro-4-(3-pyridin-3-yl-phenyl)-7-trifluoromethyl-1,3-dihydro-benzo[b][1,4]diazepin-2-one], the melting point was 208 °C.

`Cc1cc(-c2cccc(C3=Nc4cc(OCC(F)(F)F)c(C(F)(F)F)cc4NC(=O)C3)c2)ccn1` [Example 114, 4-[3-(2-Methyl-pyridin-4-yl)-phenyl]-7-(2,2,2-trifluoro-ethoxy)-8-trifluoromethyl-1,3-dihydro-benzo[b][1,4]diazepin-2-one] gave a melting point of 223 °C.

Turning to `Cc1cc(-c2cccc(C3=Nc4cc(F)c(F)cc4NC(=O)C3)c2)ccn1` [Example 115, 7,8-Difluoro-4-[3-(2-methyl-pyridin-4-yl)-phenyl]-1,3-dihydro-benzo[b][1,4]diazepin-2-one], the melting point turned out to be 217 °C.

`O=C1CC(c2cccc(-c3cccnc3)c2)=Nc2cc(F)c(F)cc2N1` [Example 116, 7,8-Difluoro-4-(3-pyridin-3-yl-phenyl)-1,3-dihydro-benzo[b][1,4]diazepin-2-one] gave a melting point of 246 °C.

`Cc1cc(-c2cccc(C3=Nc4ccc(Cl)cc4NC(=O)C3)c2)cc(C)n1` [Example 118, 8-Chloro-4-[3-(2,6-dimethyl-pyridin-4-yl)-phenyl]-1,3-dihydro-benzo[b][1,4]diazepin-2-one] returned a melting point of 236 °C.

Regarding `Cc1cc(-c2cccc(C3=Nc4cc(F)c(F)cc4NC(=O)C3)c2)cc(C)n1` [Example 126, 7,8-Difluoro-4-[3-(2,6-dimethyl-pyridin-4-yl)-phenyl]-1,3-dihydro-benzo[b][1,4]diazepin-2-one], the melting point worked out at 252 °C.

On to `Cc1cc(-c2cccc(C3=Nc4cc(C(F)(F)F)c(Cl)cc4NC(=O)C3)c2)cc(C)n1` [Example 128, 8-Chloro-4-[3-(2,6-dimethyl-pyridin-4-yl)-phenyl]-7-trifluoromethyl-1,3-dihydro benzo[b][1,4]diazepin-2-one], for which the melting point worked out at 207 °C.

Take `Cc1cncc(-c2cccc(C3=Nc4cc(C(F)(F)F)c(C)cc4NC(=O)C3)c2)n1` [Example 130, 8-Methyl-4-[3-(6-methyl-pyrazin-2-yl)-phenyl]-7-trifluoromethyl-1,3-dihydro-benzo[b][1,4]diazepin-2-one]: the melting point was 211 °C.

Compound `Cc1cncc(-c2cccc(C3=Nc4cc(C)c(Cl)cc4NC(=O)C3)c2)n1` [Example 131, 8-Chloro-7-methyl-4-[3-(6-methyl-pyrazin-2-yl)-phenyl]-1,3-dihydro-benzo[b][1,4]diazepin-2-one] showed a melting point of 235 °C.

Compound `Cc1cncc(-c2cccc(C3=Nc4cc(Cl)c(C)cc4NC(=O)C3)c2)n1` [Example 132, 7-Chloro-8-methyl-4-[3-(6-methyl-pyrazin-2-yl)-phenyl]-1,3-dihydro-benzo[b][1,4]diazepin-2-one] came in with a melting point of 254 °C.

`Cc1cc(-c2cccc(C3=Nc4cc(C)c(Cl)cc4NC(=O)C3)c2)c(C)cn1` [Example 134, 8-Chloro-4-[3-(2,5-dimethyl-pyridin-4-yl)-phenyl]-7-methyl-1,3-dihydro-benzo[b][1,4]diazepin-2-one] had a melting point of 208 °C.

Take `Cc1cc(-c2cccc(C3=Nc4cc(C)c(C(F)(F)F)cc4NC(=O)C3)c2)c(C)cn1` [Example 135, 4-[3-(2,5-Dimethyl-pyridin-4-yl)-phenyl]-7-methyl-8-trifluoromethyl-1,3-dihydro benzo[b][1,4]diazepin-2-one]: the melting point was determined as 211 °C.

`Cc1cc(-c2cccc(C3=Nc4cc(Cl)c(C(F)(F)F)cc4NC(=O)C3)c2)c(C)cn1` [Example 136, 7-Chloro-4-[3-(2,5-dimethyl-pyridin-4-yl)-phenyl]-8-trifluoromethyl-1,3-dihydro benzo[b][1,4]diazepin-2-one] gave a melting point of 214 °C.

In turn, `Cc1cc(-c2cccc(C3=Nc4cc(Cl)c(Cl)cc4NC(=O)C3)c2)c(C)cn1` [Example 137, 7,8-Dichloro-4-[3-(2,5-dimethyl-pyridin-4-yl)-phenyl]-1,3-dihydro-benzo[b][1,4]diazepin-2-one] displayed a melting point of 208 °C.

As for `CCOc1cc2c(cc1C(F)(F)F)NC(=O)CC(c1cccc(-c3cc(C)ncc3C)c1)=N2` [Example 139, 4-[3-(2,5-Dimethyl-pyridin-4-yl)-phenyl]-7-ethoxy-8-trifluoromethyl-1,3-dihydro-benzo[b][1,4]diazepin-2-one], the melting point was 189 °C.

In turn, `Cc1cc2c(cc1Cl)NC(=O)CC(c1cccc(-c3ccnc(C)c3C)c1)=N2` [Example 140, 8-Chloro-4-[3-(2,3-dimethyl-pyridin-4-yl)-phenyl]-7-methyl-1,3-dihydro-benzo[b][1,4]diazepin-2-one] came in with a melting point of 224 °C.

On to `Cc1cc2c(cc1C(F)(F)F)NC(=O)CC(c1cccc(-c3ccnc(C)c3C)c1)=N2` [Example 141, 4-[3-(2,3-Dimethyl-pyridin-4-yl)-phenyl]-7-methyl-8-trifluoromethyl-1,3-dihydro benzo[b][1,4]diazepin-2-one], for which the melting point is 222 °C.

`Cc1nccc(-c2cccc(C3=Nc4ccc(C(F)(F)F)cc4NC(=O)C3)c2)c1C` [Example 142, 4-[3-(2,3-Dimethyl-pyridin-4-yl)-phenyl]-8-trifluoromethyl-1,3-dihydro benzo[b][1,4]diazepin-2-one]: the melting point stood at 200 °C.

Consider `Cc1nccc(-c2cccc(C3=Nc4cc(Cl)c(C(F)(F)F)cc4NC(=O)C3)c2)c1C` [Example 143, 7-Chloro-4-[3-(2,3-dimethyl-pyridin-4-yl)-phenyl]-8-trifluoromethyl-1,3-dihydro benzo[b][1,4]diazepin-2-one], for which the melting point is 212 °C.

In turn, `Cc1nccc(-c2cccc(C3=Nc4cc(Cl)c(Cl)cc4NC(=O)C3)c2)c1C` [Example 144, 7,8-Dichloro-4-[3-(2,3-dimethyl-pyridin-4-yl)-phenyl]-1,3-dihydro-benzo[b][1,4]diazepin-2-one] showed a melting point of 219 °C.

`Cc1nccc(-c2cccc(C3=Nc4cc(OCC(F)(F)F)c(C(F)(F)F)cc4NC(=O)C3)c2)c1C` [Example 145, 4-[3-(2,3-Dimethyl-pyridin-4-yl)-phenyl]-7-(2,2,2-trifluoro-ethoxy)-8-trifluoromethyl-1,3-dihydro-benzo[b][1,4]diazepin-2-one] registered a melting point of 222 °C.

Consider `CCOc1cc2c(cc1C(F)(F)F)NC(=O)CC(c1cccc(-c3ccnc(C)c3C)c1)=N2` [Example 146, 4-[3-(2,3-Dimethyl-pyridin-4-yl)-phenyl]-7-ethoxy-8-trifluoromethyl-1,3-dihydro-benzo[b][1,4]diazepin-2-one], for which the melting point was found to be 217 °C.

As to `CCc1cnc(C)cc1-c1cccc(C2=Nc3cc(C)c(C(F)(F)F)cc3NC(=O)C2)c1` [Example 148, 4-[3-(5-Ethyl-2-methyl-pyridin-4-yl)-phenyl]-7-methyl-8-trifluoromethyl-1,3-dihydro benzo[b][1,4]diazepin-2-one], the melting point turned out to be 182 °C.

`CCc1cnc(C)cc1-c1cccc(C2=Nc3ccc(C(F)(F)F)cc3NC(=O)C2)c1` [Example 149, 4-[3-(5-Ethyl-2-methyl-pyridin-4-yl)-phenyl]-8-trifluoromethyl-1,3-dihydro benzo[b][1,4]diazepin-2-one] gave a melting point of 183 °C.

On to `CCc1cnc(C)cc1-c1cccc(C2=Nc3cc(Cl)c(Cl)cc3NC(=O)C2)c1` [Example 150, 7,8-Dichloro-4-[3-(5-ethyl-2-methyl-pyridin-4-yl)-phenyl]-1,3-dihydro-benzo[b][1,4]diazepin-2-one], for which the melting point was found to be 191 °C.

For the compound `CCc1cnc(C)cc1-c1cccc(C2=Nc3cc(OCC(F)(F)F)c(C(F)(F)F)cc3NC(=O)C2)c1` [Example 151, 4-[3-(5-ethyl-2-methyl-pyridin-4-yl)-phenyl]-7-(2,2,2-trifluoro-ethoxy)-8-trifluoromethyl-1,3-dihydro-benzo[b][1,4]diazepin-2-one], the melting point amounted to 169 °C.

For `CCOc1cc2c(cc1C(F)(F)F)NC(=O)CC(c1cccc(-c3cc(C)ncc3CC)c1)=N2` [Example 152, 4-[3-(5-Ethyl-2-methyl-pyridin-4-yl)-phenyl]-7-ethoxy-8-trifluoromethyl-1,3-dihydro-benzo[b][1,4]diazepin-2-one], the melting point amounted to 191 °C.

On to `CCc1cc(-c2cccc(C3=Nc4cc(C)c(Cl)cc4NC(=O)C3)c2)ccn1` [Example 153, 8-Chloro-4-[3-(2-ethyl-pyridin-4-yl)-phenyl]-7-methyl-1,3-dihydro-benzo[b][1,4]diazepin-2-one], for which the melting point stood at 195 °C.

Turning to `CCc1cc(-c2cccc(C3=Nc4ccc(C(F)(F)F)cc4NC(=O)C3)c2)ccn1` [Example 155, 4-[3-(2-Ethyl-pyridin-4-yl)-phenyl]-8-trifluoromethyl-1,3-dihydro benzo[b][1,4]diazepin-2-one], the melting point is 208 °C.

`CCc1cc(-c2cccc(C3=Nc4cc(Cl)c(C(F)(F)F)cc4NC(=O)C3)c2)ccn1` [Example 156, 7-Chloro-4-[3-(2-ethyl-pyridin-4-yl)-phenyl]-8-trifluoromethyl-1,3-dihydro benzo[b][1,4]diazepin-2-one] yielded a melting point of 217 °C.

Compound `CCc1cc(-c2cccc(C3=Nc4cc(Cl)c(Cl)cc4NC(=O)C3)c2)ccn1` [Example 157, 7,8-Dichloro-4-[3-(2-ethyl-pyridin-4-yl)-phenyl]-1,3-dihydro-benzo[b][1,4]diazepin-2-one] yielded a melting point of 216 °C.

In turn, `CCc1cc(-c2cccc(C3=Nc4cc(OCC(F)(F)F)c(C(F)(F)F)cc4NC(=O)C3)c2)ccn1` [Example 158, 4-[3-(2-Ethyl-pyridin-4-yl)-phenyl]-7-(2,2,2-trifluoro-ethoxy)-8-trifluoromethyl-1,3-dihydro-benzo[b][1,4]diazepin-2-one] yielded a melting point of 232 °C.
